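1) Cells in 96-well plates. 2) Compound, 48 h, 5 concentrations. 3) Linear interpolation between surrounding doses. 4) Unreached endpoint = highest concentration. GI50 marks 50% less growth. TGI denotes the concentration required for complete inhibition of growth.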
Legend:
Assay in all cases: growth of human tumour cells (NCI), 48 h
[1] = tested on: TK-10 renal
[2] = tested on: SK-MEL-2 melanoma
[3] = tested on: UACC-257 melanoma
[4] = tested on: SN12C renal
[5] = tested on: LOX IMVI melanoma
[6] = tested on: NCI-H226 lung
[7] = tested on: MALME-3M melanoma
[8] = tested on: K-562 leukemia
[9] = tested on: HCT-116 colon
[10] = tested on: HS 578T breast
[11] = tested on: OVCAR-5 ovarian
[12] = tested on: OVCAR-4 ovarian
[13] = tested on: SNB-75 CNS
[14] = tested on: COLO 205 colon
[15] = tested on: M14 melanoma
[16] = tested on: SK-MEL-28 melanoma
[17] = tested on: HOP-92 NSCLC
[18] = tested on: CCRF-CEM leukemia
[19] = tested on: NCI-H522 lung
[20] = tested on: U251 CNS
[21] = tested on: SW-620 colon
[22] = tested on: SR leukemia
[23] = tested on: ACHN renal
[24] = tested on: IGROV1 ovarian
[25] = tested on: SK-OV-3 ovarian
[26] = tested on: HOP-62 NSCLC
[27] = tested on: HCC-2998 colon
[28] = tested on: A549 NSCLC
[29] = tested on: NCI-H23 lung
[30] = tested on: EKVX NSCLC
[31] = tested on: UO-31 renal
[32] = tested on: HCT-15 colon
[33] = tested on: OVCAR-8 ovarian
[34] = tested on: SF-295 CNS
[35] = tested on: NCI-H460 lung
[36] = tested on: MCF7 breast
[37] = tested on: KM12 colon
[38] = tested on: SF-539 CNS
[39] = tested on: SNB-19 CNS
[40] = tested on: OVCAR-3 ovarian
[41] = tested on: HL-60(TB) leukemia
[42] = tested on: RXF 393 renal
[43] = tested on: CAKI-1 renal
[44] = tested on: DU-145 prostate
[45] = tested on: A498 renal
[46] = tested on: SK-MEL-5 melanoma
[47] = tested on: BT-549 breast
[48] = tested on: MDA-MB-468 breast
[49] = tested on: MOLT-4 leukemia
[50] = tested on: UACC-62 melanoma
[51] = tested on: 786-0 renal
[52] = tested on: MDA-MB-435
[53] = tested on: MDA-MB-231 breast
[54] = tested on: SF-268 CNS
[55] = tested on: PC-3 prostate

For `CC(C)(C)Nc1nc2cc(Cl)c(Cl)cc2nc1S(C)(=O)=O`, which GI50 [1] is on record?
Its GI50 is 1.7 µM.

What about the TGI [1] of the same compound?
Its TGI is 3.19 µM.

What about the GI50 [2] of the same compound?
Its GI50 is 4.14 µM.

What about the TGI [2] of the same compound?
The TGI was 16.1 µM.

What about the GI50 [3] of the same compound?
Its GI50 is 1.99 µM.

What about the TGI [3] of the same compound?
Its TGI is 4.28 µM.

What about the GI50 [4] of the same compound?
Its GI50 is 3.74 µM.

And the TGI [4]?
The TGI was 14.4 µM.

What about the GI50 [5] of the same compound?
The GI50 was 1.35 µM.

What about the TGI [5] of the same compound?
Its TGI is 2.72 µM.

And the GI50 [6]?
Its GI50 is 11.4 µM.

What about the TGI [6] of the same compound?
The TGI was 41.7 µM.

And the GI50 [7]?
The GI50 was 1.64 µM.

What about the TGI [7] of the same compound?
The TGI was 3.09 µM.

And the GI50 [8]?
Its GI50 is 1.05 µM.

And the TGI [8]?
The TGI was 3.21 µM.

What about the GI50 [9] of the same compound?
The GI50 was 1.67 µM.

And the TGI [9]?
Its TGI is 3.44 µM.

And the GI50 [10]?
Its GI50 is 7.29 µM.

What about the TGI [10] of the same compound?
The TGI was 35.2 µM.

What about the GI50 [11] of the same compound?
The GI50 was 14.6 µM.

What about the TGI [11] of the same compound?
Its TGI is 28.4 µM.

What about the GI50 [12] of the same compound?
Its GI50 is 2.96 µM.

And the TGI [12]?
Its TGI is 9.57 µM.

What about the GI50 [13] of the same compound?
The GI50 was 8.16 µM.

What about the TGI [13] of the same compound?
Its TGI is 24.4 µM.

What about the GI50 [14] of the same compound?
Its GI50 is 1.7 µM.

And the TGI [14]?
The TGI was 3.28 µM.

And the GI50 [15]?
Its GI50 is 1.71 µM.

What about the TGI [15] of the same compound?
Its TGI is 3.43 µM.

And the GI50 [16]?
The GI50 was 1.79 µM.

What about the TGI [16] of the same compound?
The TGI was 3.33 µM.

What about the GI50 [17] of the same compound?
The GI50 was 2 µM.

And the TGI [17]?
The TGI was 4.88 µM.

And the GI50 [18]?
Its GI50 is 0.307 µM.

And the TGI [18]?
The TGI was 3.77 µM.

What about the GI50 [19] of the same compound?
The GI50 was 1.2 µM.

And the TGI [19]?
The TGI was 2.63 µM.

And the GI50 [20]?
The GI50 was 11.1 µM.

What about the TGI [20] of the same compound?
The TGI was 24.5 µM.

And the GI50 [21]?
Its GI50 is 1.48 µM.

And the TGI [21]?
The TGI was 2.96 µM.

And the GI50 [22]?
Its GI50 is 0.504 µM.

And the TGI [22]?
The TGI was 2.74 µM.

And the GI50 [23]?
The GI50 was 1.75 µM.

What about the TGI [23] of the same compound?
The TGI was 3.35 µM.

What about the GI50 [24] of the same compound?
The GI50 was 12.2 µM.

And the TGI [24]?
The TGI was 25.6 µM.

And the GI50 [25]?
The GI50 was 13.3 µM.

And the TGI [25]?
The TGI was 26.4 µM.

What about the GI50 [26] of the same compound?
The GI50 was 14.9 µM.

What about the TGI [26] of the same compound?
The TGI was 29.2 µM.

And the GI50 [27]?
The GI50 was 8.7 µM.

And the TGI [27]?
Its TGI is 20.9 µM.

And the GI50 [28]?
Its GI50 is 13.5 µM.

And the TGI [28]?
Its TGI is 27.6 µM.

What about the GI50 [29] of the same compound?
The GI50 was 2.09 µM.

What about the TGI [29] of the same compound?
Its TGI is 5.07 µM.

What about the GI50 [30] of the same compound?
Its GI50 is 13.3 µM.

And the TGI [30]?
The TGI was 27 µM.

What about the GI50 [31] of the same compound?
Its GI50 is 1.58 µM.

What about the TGI [31] of the same compound?
Its TGI is 2.95 µM.

What about the GI50 [32] of the same compound?
Its GI50 is 1.53 µM.

What about the TGI [32] of the same compound?
Its TGI is 3.03 µM.

And the GI50 [33]?
The GI50 was 3.95 µM.

And the TGI [33]?
Its TGI is 19.6 µM.

What about the GI50 [34] of the same compound?
Its GI50 is 14.6 µM.

And the TGI [34]?
Its TGI is 28.1 µM.

What about the GI50 [35] of the same compound?
The GI50 was 8.46 µM.

What about the TGI [35] of the same compound?
The TGI was 22.8 µM.

What about the GI50 [36] of the same compound?
Its GI50 is 1.9 µM.

And the TGI [36]?
Its TGI is 4.23 µM.

And the GI50 [37]?
Its GI50 is 7.82 µM.

And the TGI [37]?
Its TGI is 24.7 µM.

And the GI50 [38]?
Its GI50 is 6.38 µM.

And the TGI [38]?
The TGI was 19.3 µM.

What about the GI50 [39] of the same compound?
The GI50 was 13.8 µM.

What about the TGI [39] of the same compound?
The TGI was 26.9 µM.

And the GI50 [40]?
The GI50 was 1.89 µM.

What about the TGI [40] of the same compound?
Its TGI is 3.52 µM.

What about the GI50 [41] of the same compound?
Its GI50 is 4.03 µM.

What about the TGI [41] of the same compound?
The TGI was 20.1 µM.

And the GI50 [42]?
The GI50 was 1.77 µM.

And the TGI [42]?
Its TGI is 3.64 µM.

And the GI50 [43]?
The GI50 was 1.58 µM.

What about the TGI [43] of the same compound?
Its TGI is 3.01 µM.

What about the GI50 [44] of the same compound?
Its GI50 is 3.46 µM.

And the TGI [44]?
Its TGI is 12.1 µM.

And the GI50 [45]?
Its GI50 is 19.2 µM.

What about the TGI [45] of the same compound?
Its TGI is 33.5 µM.

And the GI50 [46]?
Its GI50 is 2.18 µM.

What about the TGI [46] of the same compound?
The TGI was 5.77 µM.

What about the GI50 [47] of the same compound?
Its GI50 is 1.74 µM.

And the TGI [47]?
The TGI was 3.41 µM.

And the GI50 [48]?
The GI50 was 1.64 µM.

What about the TGI [48] of the same compound?
The TGI was 3.13 µM.

And the GI50 [49]?
The GI50 was 0.411 µM.

What about the TGI [49] of the same compound?
The TGI was 1.97 µM.

And the GI50 [50]?
The GI50 was 6.98 µM.

And the TGI [50]?
Its TGI is 19.8 µM.

And the GI50 [51]?
Its GI50 is 1.84 µM.

And the TGI [51]?
The TGI was 3.47 µM.

What about the GI50 [52] of the same compound?
Its GI50 is 1.88 µM.

What about the TGI [52] of the same compound?
The TGI was 4.17 µM.

What about the GI50 [53] of the same compound?
Its GI50 is 3.11 µM.

And the TGI [53]?
The TGI was 8.94 µM.

What about the GI50 [54] of the same compound?
Its GI50 is 15.9 µM.

And the TGI [54]?
Its TGI is 36.4 µM.

What about the GI50 [55] of the same compound?
The GI50 was 8.63 µM.

What about the TGI [55] of the same compound?
Its TGI is 24.6 µM.
